Laboratory results published in US10321682B2, “Pesticidal aryl pyrrole nitrile compound, preparation method for same, uses thereof, agricultural pesticide, and pest control method” (HENAN GOODDAYS BIOLOGY DEVELOPMENT CO., LTD., priority 2016, dated 2019).
In brackets after ≈: the same amount, converted by molar mass. Where two headings read alike, the source gives them in different places.

Assays:
[1] = Acute oral toxicity in rats; settings: both sexes, rat, in vivo, both female rats and male rats
[2] = Acute percutaneous toxicity in rats; settings: both sexes, rat, in vivo, topical; both female rats and male rats
[3] = Toxicity to Japanese carp; settings: in vivo
[4] = test system: rats; settings: cited from earlier work

Structure (SMILES)	LD50 [1] [mg/kg]	LD50 [2] [mg/kg]	LC50 [3] [µg/mL]	acute oral LD50 ([4]; female rats) [mg/kg]	acute oral LD50 ([4]; male rats) [mg/kg]
N#Cc1c(Br)c(C(F)(F)F)n(Cc2cnc(Cl)s2)c1-c1ccc(Cl)cc1 [4-bromo-2-(4-chlorophenyl)-1-(2-chloro-5-thiazolylmethyl)-5-trifluoromethylpyrrole-3-carbonitrile]	> 5000	> 2000	2.5 (≈ 5.2 µM)		
CCOCn1c(-c2ccc(Cl)cc2)c(C#N)c(Br)c1C(F)(F)F [Chujin, 4-bromo-2-(4-chlorophenyl)-1-ethoxymethyl-5-trifluoromethylpyrrole-3-carbonitrile]				459	223
